Results: patent US10585102B2, “Characterization of cancer using detection of activated leukocyte cell adhesion molecule (ALCAM) shedding” (Vanderbilt University, priority 2012, dated 2020)
Like-named read-outs stand apart in the source and are kept apart here.

Tests used:
HEp3 cells = test: Transwell migration with pathway inhibitors, with or without anti-CD151 antibody 1A5; format: cell-based, human
Experimental: In Vitro Transwell Migration: Tumor cells in a single cell suspension were plated into the top chamber of 8 μm transwell (Costar) inserts in the presence of serum free/insulin free media. Cell culture media containing 10% fetal bovine serum was placed in the bottom chamber to serve as a chemoattractant. Migration assays were carried out for 12 hrs in a 37° C. cell culture incubator containing 5% CO2. The top surface of the inserts was cleaned with a cotton swab soaked with PBS to remove the non-migrated cells. The transwell inserts were subsequently fixed in methanol and stained with 0.2% crystal violet. The number of migrated cells was counted in 3 independent fields under 20× magnification with a light microscope.
Transwell migration assays were performed in the presence or absence of each inhibitor together with or without the anti-CD151 antibody 1A5.

Rap1A = test: Rap1 activation assay (GTP-bound Rap1A pull-down, immunoblot); format: cell-based; conditions: HEp3 cells; PKCα inhibited by pharmacological means
Experimental: Rap1 activation was analyzed using the Rap1 activation kit (Chemicon). All treatments were performed in the presence of serum free/insulin free media. Cells to be assayed were washed with ice cold PBS and lysed in RIPA like Rap1 buffer (10% glycerol, 50 mM Tris/HCl, 150 mM NaCl, 5 mM phenylmethylsulfonyl fluoride, 1 mM sodium orthovanadate). The lysates were pushed through a 25 gauge syringe and cleared by centrifugation at max speed at 4 degrees for 10 min. Equal amounts of lysates were immunoprecipitated with Ra1GDS RBD conjugated agarose beads for 45 minutes at 4° C. After washing the beads where resuspended with sample buffer and boiled for 5 minutes. The immunoprecipitates were separated by SDS-Page as mentioned above, transferred to PVDF membranes, probed with the anti-Rap1 antibody and horse radish peroxidase-conjugated secondary antibody. After washing the membranes were developed by autoradiography.
To evaluate whether Rap1A was activated in response to CD151 clustering as well as ALCAM-ALCAM ligation, HEp3 cells were treated with 1A5 or seeded on ALCAM-FC for up to 48 hrs. Active Rap1A in the cells was evaluated by immunblotting of GTP-bound Rap1A affinity purified from lysates with Ra1-GDS beads.

PC3 cells [1] = test: ALCAM expression in response to TGFβ (RT-PCR, Western blot); format: cell-based, human
Experimental: (§1) SDS-PAGE and immunoblotting. Cells (2.5×10^5) were plated in 6-well dishes. After 24 h, cells were serum starved in Opti-MEM for 16 h and then treated in the presence or absence of indicated growth factors or inhibitors, for 48 h. After that, the cells were lysed in TNE Lysis Buffer (20 mM Tris-Cl [pH 7.4], 0.5 mM EDTA, 1% Triton X-100, 150 mM NaCl, protease inhibitor cocktail (sigma), 1 mM phenylmethylsulfonyl fluoride). Total protein in the lysates was quantified using BCA assay (BioRad). Conditioned media samples were concentrated with microcon centrifugal filters (Millipore) following manufacturers protocol, which were eluted directly in 5× sample buffer for Western blot analysis. Protein loading for conditioned-medium samples for Western blot analysis was adjusted according to the total protein in cell lysates. Conditioned media and total protein was subjected to SDS-PAGE and electrophoretic transfer to polyvinylidene difluoride membranes (Immobilon P, Millipore, Inc., Bedford, Mass.). Immunodetection was done by conventional chemiluminescence
(§2) The mRNA samples were prepared from tumor cells lysed in TRI Reagent (Ambion) and purified using phenol extraction, followed by real-time polymerase chain reaction (RT-PCR). The following qPCR primers were used ALCAM, […] (forward) and […] (reverse); ADAM17, […] (forward) and […] (reverse); and glyceraldehyde-3-phosphate dehydrogenase, […] (forward) and TTCCCCATGGTGTCTGAGC (reverse).
(§3) ALCAM is proteolytically shed from PC3 cells (FIG. 21). Absence of the cytoplasmic tail confirms that the ectodomain is shed (FIG. 21A). Moreover, ALCAM is absent from PC3-derived exosomes ensuring that the ectodomain is shed and not released with cell-derived microparticles (FIG. 21B). Since prostate cancer disseminates predominantly to bone we selected cytokines thought to be involved in this process, including TGFβ. […] To further explore the response to exogenous stimulation with TGFβ, ALCAM expression in PC3 cells was compared to ALCAM expression in LNCaP cells which are unable to respond to the cytokine because they lack TGFβ receptor type I (FIGS. 23B and 23C). […] TGFβ-induced expression in PC3 cells could be abrogated with the small molecule inhibitor SB431542 (FIG. 23D, 10 μm; Sigma) while TGFβ-induced ALCAM mRNA and protein expression could be restored in LNCaP cells when the cells were transfected with dominant-active TGFβ receptor type I (FIGS. 23E and 23F).

PC3 cells [2] = test: ALCAM shedding in conditioned media of cytokine-treated cells (ELISA); format: cell-based, human; conditions: PC3 concentrated conditioned media; 8 agents tested
LNCaP cells = test: ALCAM expression in response to TGFβ (RT-PCR, Western blot); format: cell-based, human; conditions: lack TGFβ receptor type I
Experimental: as §1, §2, §3

[3] = In vivo ALCAM serum half-life; conditions: serum injected retrorbitally in ALCAM KO mice; ELISA
Experimental: Serum was harvested from ALCAM wild-type, mixed background, mice and pooled. Combined serum collected from WT mice was injected retrorbitally in ALCAM KO mice (100 μl/mouse). ALCAM KO mice were pre-bled via saphenous vein bleed, and then bled at 10 mins, 2 hours, 4 hours, 24 hours and 48 hours (n=2/time point; total n=10). WT pooled serum was used as ELISA control to quantitatively determine ALCAM serum half-life.
To determine if tumor-derived ALCAM is the source of elevated circulating ALCAM, species-specific antibodies were used to monitor circulating levels of both host (mouse) ALCAM and tumor (human) ALCAM longitudinally during orthotopic and subcutaneous growth of PC3 cells (FIG. 24). The half-life of human ALCAM in the circulation of its mouse host was determined to confirm that tumor-derived ALCAM could act as a stable biomarker in vivo (FIG. 25).

[4] = HEp3 cells, ± anti-CD151 antibody 1A5

COc1ccc2c(c[n+](C)c3c4cc5c(cc4ccc23)OCO5)c1OC [Chelerythrin]
Transwell migration in the presence or absence of inhibitor, with or without 1A5 (HEp3 cells; [4]): allowed for migration of untreated cells but prevented 1A5 from inhibiting migration | Rap1A activation by 1A5 after PKCα disruption (Rap1A): 1A5 was unable to promote Rap1A activation

COC(=O)[C@H](CC(C)C)NC(=O)c1ccc(NC[C@@H](N)CS)cc1-c1cccc2ccccc12 [GGTI-298]
Transwell migration in the presence or absence of inhibitor, with or without 1A5 (HEp3 cells; [4]): allowed for migration of untreated cells but prevented 1A5 from inhibiting migration

NC(=O)c1ccc(-c2nc(-c3ccc4c(c3)OCO4)c(-c3ccccn3)[nH]2)cc1 [SB431542]
TGFβ-induced ALCAM expression (PC3 cells [1]; 10 μm inhibitor, 10 ng/ml TGFβ, 48 hrs): abrogated

N#CC(=C(/N)Sc1ccccc1N)/C(C#N)=C(\N)Sc1ccccc1N [U0126]
Transwell migration in the presence or absence of inhibitor, with or without 1A5 (HEp3 cells): inhibited migration independent of anti-CD151 antibody treatment

TGFβ
ALCAM shedding (PC3 cells [2]): promoted ALCAM shedding relative to overall total protein increase | response of ALCAM expression to TGFβ (LNCaP cells): did not respond | ALCAM gene transcription (quantitative RT-PCR) (PC3 cells [1]; 10 ng/ml TGFβ, 48 hrs): able to induce ALCAM gene transcription in PC3 | ALCAM protein expression and ectodomain shedding (Western blot) (PC3 cells [1]; cell lysate and conditioned media): increased levels of ALCAM protein expression and ectodomain shedding

B1: ALCAM: circulating soluble Activated Leukocyte Cell Adhesion Molecule (shed ectodomain) in serum (protein, UniProt Q13740 28-527, looked up)
extracellular domain: WYTVNSAYGDTIIIPCRLDVPQNLMFGKWKYEKPDGSPVFIAFRSSTKKSVQYDDVPEYKDRLNLSENYTLSISNARISDEKRFVCMLVTEDNVFEAPTIVKVFKQPSKPEIVSKALFLETEQLKKLGDCISEDSYPDGNITWYRNGKVLHPLEGAVVIIFKKEMDPVTQLYTMTSTLEYKTTKADIQMPFTCSVTYYGPSGQKTIHSEQAVFDIYYPTEQVTIQVLPPKNAIKEGDNITLKCLGNGNPPPEEFLFYLPGQPEGIRSSNTYTLTDVRRNATGDYKCSLIDKKSMIASTAITVHYLDLSLNPSGEVTRQIGDALPVSCTISASRNATVVWMKDNIRLRSSPSFSSLHYQDAGNYVCETALQEVEGLKKRESLTLIVEGKPQIKMTKKTDPSGLSKTIICHVEGFPKPAIQWTITGSGSVINQTEESPYINGRYYSKIIISPEENVTLTCTAENQLERTVNSLNVSAISIPEHDEADEISDENREKVNDQAK
modifications: extracellular domain shed soluble form
half-life in circulation [3]: 17 h
